Measured values as given in US20250154531A1, “METHODS FOR IMPROVED HOMOLOGOUS RECOMBINATION AND COMPOSITIONS THEREOF” (LIFE TECHNOLOGIES CORPORATION, priority 2017, published 2025).

Tests used:
[1] = system: genomic locus of beta-actin; experiment: Insertion of puromycin-P2A-OFP into beta-actin locus in human primary T cells, OFP-positive cells by flow cytometry; format: cell-based; conditions: 30 μM in culture medium after electroporation, 48 hours
Method: Human peripheral blood mononuclear cells (PBMCs) were isolated from peripheral blood using Ficoll-Paque PLUS density gradient according to manufacturer's instructions. The human primary T cells were then isolated using DYNABEADS™ UNTOUCHED™ Human T Cells Kit and expanded using OPTMIZER™ CTS™ T-Cell Expansion SFM supplemented with 200 IU/mL of IL-2. The activation and expansion of human T cells were carried out using DYNABEADS™ Human T-Expander CD3/CD28 kit. On day 3 of activation, T cells were harvested for transfection.
For transfection of primary T cells, 1×10^5 cells were used per NEON® electroporation with voltage set at 1700V, pulse width set at 20 ms, and the number of pulses set at 1, respectively. To evaluate the effects of chemical modification on HDR efficiency, phosphorothioate or amine-modified nucleotides were added at specific positions of the oligonucleotides during chemical synthesis. The resulting modified oligonucleotides were then used to amplify the donor DNA. […] Cells were analyzed at 48 hours post transfection.
Linear ds- or ss-DNA donor could be degraded in vivo by exonucleases. […] At 48 hours post transfection, the percentages of OFP-positive cells were determined by flow cytometric analysis. […]
The disruption of NHEJ repair pathway is known to improve HDR efficiency. […] At 48 hours post transfection, we analyzed the cells by flow cytometry.

β-actin in Jurkat = experiment: One-step knock-in of OFP with NHEJ inhibitor in Jurkat cells; format: cell-based; conditions: in media for two days after transfection
Method: (§1) Various cell types (NK-92, THP-1, Jurkat) were transfected with 1 μg TRUECUT™ Cas9 Protein v2 and 250 ng of β-actin gRNA, and 0.25 μg, 0.5 μg, or 1 μg OFP-Puro in electroporation buffer. Electroporation was performed using the NEON® Transfection System. After electroporation, the cells were cultured in media containing NHEJ inhibitor (Ku0060648) for two days, then analyzed via FACS analysis for SSC-A and OFP.

β-actin in THP-1 = experiment: One-step knock-in of OFP with NHEJ inhibitor in THP-1 cells; format: cell-based; conditions: THP-1, in media for two days after transfection
Method: as §1

[2] = system: T cell receptor (TRAC gRNA); experiment: One-step knock-in with two Cas9/gRNA complexes in primary T cells, knock-out efficiency; format: cell-based, human; conditions: in media for two days after electroporation
Method: (§2) Human primary T cells were isolated and activated as in Example 10. On the third day after activation, cells were transfected with 1 μg TRUECUT™ Cas9 Protein v2 with 250 ng of β-actin gRNA, 1 μg TRUECUT™ Cas9 Protein v2 with 250 ng of a guide RNA targeting the T cell receptor (TRAC gRNA), and 1 μg OFP-Puro in electroporation buffer. Electroporation was performed using the NEON® Transfection System, program 24. After electroporation, the cells were cultured in media containing NHEJ inhibitor (Ku0060648) for two days, then analyzed via FACS analysis for SSC-A and OFP.

β-actin in NK-92 = experiment: One-step knock-in of OFP with NHEJ inhibitor in NK-92 cells; format: cell-based; conditions: NK-92, in media for two days after transfection
Method: as §1

β-actin = experiment: One-step knock-in with two Cas9/gRNA complexes in primary T cells, knock-in efficiency; format: cell-based, human; conditions: in media for two days after electroporation
Method: as §2

Row | Compound | increase of the percentage of OFP-positive cells ([1]; amine-modified donor DNA) | increase of the percentage of OFP-positive cells ([1]; unmodified donor DNA) | knock-in efficiency (β-actin in Jurkat) | knock-in efficiency (β-actin in THP-1) | knock-out efficiency (Q3 and Q4) [2] | knock-in efficiency (β-actin in NK-92) | knock-in efficiency (Q3) (β-actin)
1 | O=c1cc(N2CCOCC2)oc2c1ccc1ccccc12 [Nu7026, 2-(4-Morpholinyl)-4H-naphthol[1,2-b]pyran-4-one] | ~2 fold | approximately 5 fold | – | – | – | – | –
2 | CCN1CCN(CC(=O)Nc2ccc(-c3cccc4c(=O)cc(N5CCOCC5)oc34)c3sc4ccccc4c23)CC1 [Ku-0060648, 4-Ethyl-N-[4-[2-(4-morpholinyl)-4-oxo-4H-1-benzopyran-8-yl]-1-dibenzothienyl]-1-piperazineacetamide] | – | – | increased knock-in efficiency | increased knock-in efficiency | without affecting knock-out efficiency | increased knock-in efficiency | increased knock-in efficiency
